Columns and labels:
Jurkat cells = experiment: cells; type: cell-based; conditions: Jurkat cells
MCF-7 human breast tumor = experiment: MCF-7 Human Breast Tumor Xenograft Model; type: in vivo, nude mice; conditions: in combination with taxotere
How it was run: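 Female nu/nu mice (~20 g, 5–6 wk) given 21-day estrogen pellets (0.25 mg) s.c. 24 h before s.c. MCF-7 tumor fragment implantation; 9–10 mice/group. Compounds dosed i.p. (qdx5 Days 1–5, or Days 1, 2, 3, 4, 7); taxotere i.v. (Days 1, 3, 5 or 1, 3, 7), given 15–30 min before compound in combinations.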

**Q.** Which results are given for `CC(C)(C)c1[nH]cnc1/C=c1\[nH]c(=O)/c(=C/c2ccccc2)[nH]c1=O` [KPU-2, tBu-dehydro-PLH]?
**A.** Cytotoxicity Efficacy % Cell Death (Jurkat cells): 94%; effect on estimated tumor growth (MCF-7 human breast tumor): appeared to be the most effective

From patent US8129527B2, “Analogs of dehydrophenylahistins and their therapeutic use” (Nereus Pharmacuticals, Inc., priority 2006, dated 2012)
